How the values were obtained:
PDX1206 = assay: GRmax, 72 h; higher = less effect;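 also: breast cell lines in 384-well plates, nine doses across a 10^4 range, Dye Drop imaging of viable cells vs DMSO and time-zero plates, GR 0 means no net growth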
MCF10A (GM) = assay: GRmax, 72 h; higher = less effect;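 also: breast cell lines in 384-well plates, nine doses across a 10^4 range, Dye Drop imaging of viable cells vs DMSO and time-zero plates, GR 0 means no net growth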
HCC1428 [1] = assay: area over the GR curve, 72 h; higher = more effect;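 also: Dye Drop or Deep Dye Drop imaging of viable cells in 384-well plates (Hoechst nuclei, LIVE/DEAD dye), nine half-log doses, GR normalized to DMSO controls and time-zero plates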
MDAMB157 = assay: GRmax, 72 h; higher = less effect;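 also: breast cell lines in 384-well plates, nine doses across a 10^4 range, Dye Drop imaging of viable cells vs DMSO and time-zero plates, GR 0 means no net growth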
HCC1428 [2] = assay: GRmax, 72 h; higher = less effect;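 also: breast cell lines in 384-well plates, nine doses across a 10^4 range, Dye Drop imaging of viable cells vs DMSO and time-zero plates, GR 0 means no net growth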
HCC1500 = assay: GRmax, 72 h; higher = less effect

Compound | GRmax, 72 h (PDX1206) [GR] | GRmax, 72 h (MCF10A (GM)) [GR] | area over the GR curve (HCC1428 [1]) [GR] | GRmax, 72 h (MDAMB157) [GR] | GRmax, 72 h (HCC1428 [2]) [GR] | GRmax, 72 h (HCC1500) [GR] | other results
COc1ccc2c(c1)[C@]1(C[C@H]1c1ccc3c(/C=C/c4ccc(CN5C[C@@H](C)O[C@@H](C)C5)cc4)n[nH]c3c1)C(=O)N2 | 0.0507 | 0.0912 |  |  |  |  | 
COc1cccc(OCCCN)c1-c1cc(Nc2cnc(C#N)cn2)n[nH]1 | -0.497 | 0.322 |  |  |  |  | 
CC(=O)Nc1cccc(-n2c(=O)n(C3CC3)c(=O)c3c(Nc4ccc(I)cc4F)n(C)c(=O)c(C)c32)c1 (max 1 µM) |  |  | 0.0695 | 0.406 | 0.815 | 0.344 | 
CCc1cnn2c(NCc3ccc[n+]([O-])c3)cc(N3CCCC[C@H]3CCO)nc12 (max 1 µM) |  |  | 0.656 | -0.911 | -0.672 | -0.572 | 
CC(=O)c1c(C)c2cnc(Nc3ccc(N4CCNCC4)cn3)nc2n(C2CCCC2)c1=O (max 3.162 µM) |  |  | 0.314 | 0.975 | 0.254 | 0.574 | 
CCc1cncnc1N1CCN(Cc2nc3ccc(C(F)(F)F)cc3[nH]2)CC1 (max 10 µM) |  |  | -0.0224 | 0.11 | 0.864 | 0.0495 | 
CCCCOc1c(C(=O)c2c(F)cc(C)cc2F)c[nH]c2nncc1-2 (max 10 µM) | 0.123 | 0.106 |  |  |  |  | 
CCN1CCN(Cc2ccc(Nc3ncc(F)c(-c4cc(F)c5nc(C)n(C(C)C)c5c4)n3)nc2)CC1 (max 10 µM) |  |  | 0.636 | -0.604 | 0.0492 | 0.22 | 
CNc1nc(-c2ccc3c(N)n[nH]c3c2)cc(N2C[C@@H](C(=O)NC3CCCCC3)CC[C@H]2C)n1 (max 10 µM) | 0.295 | 0.857 |  |  |  |  | 
CO[C@@H](C)Cn1c(=O)n(C)c2cnc3ccc(-c4cncc(C(C)(C)O)c4)cc3c21 (max 10 µM) | -0.404 | 0.0552 |  |  |  |  | 
Cc1nn(C)c(COc2ccc(N3CCN(S(=O)(=O)N(C)C)CC3)cc2)c1-c1cccc2c(CCCOc3cccc4ccccc34)c(C(=O)O)n(CCN3CCOCC3)c12 (max 10 µM) |  |  | -0.0325 | 0.788 | 0.816 | 0.872 | 
CN(C)CC[C@H](CSc1ccccc1)Nc1ccc(S(=O)(=O)NC(=O)c2ccc(N3CCN(Cc4ccccc4-c4ccc(Cl)cc4)CC3)cc2)cc1[N+](=O)[O-] [ABT-737] (max 10 µM) |  |  | 0.111 | 0.201 | 0.243 | -0.736 | 
C=CCn1c(=O)c2cnc(Nc3ccc(N4CCN(C)CC4)cc3)nc2n1-c1cccc(C(C)(C)O)n1 [AZD1775] (max 10 µM) | -0.308 | 0.0319 |  |  |  |  | 
CNC(=O)c1cccc(-c2ccc3c(N4CCOC[C@@H]4C)nc(N4CCOC[C@@H]4C)nc3n2)c1 [AZD2014] (max 10 µM) | 0.14 | 0.211 |  |  |  |  | 
NC1(C(=O)N[C@@H](CCO)c2ccc(Cl)cc2)CCN(c2nc[nH]c3nccc2-3)CC1 [AZD5363] (max 10 µM) | 0.397 | 0.641 |  |  |  |  | 
C[C@@H]1COCCN1c1cc(C2([S@](C)(=N)=O)CC2)nc(-c2cc[nH]c3nccc2-3)n1 [AZD6738] (max 10 µM) | 0.141 | 0.226 |  |  |  |  | 
NC(=O)Nc1cc(-c2cccc(F)c2)sc1C(=O)N[C@H]1CCCNC1 [AZD7762] (max 10 µM) |  |  | 0.323 | -0.786 | -0.215 | -0.256 | 
Cc1nc(NC(=O)N2CCC[C@H]2C(N)=O)sc1-c1ccnc(C(C)(C)C(F)(F)F)c1 [Alpelisib/BYL719] (max 10 µM) |  |  | 0.0107 | 0.492 | 0.853 | 0.581 | 
CN(C)C/C=C/C(=O)Nc1ccc(O[C@@H]2CCC[C@@H](Nc3ncc(Cl)c(-c4c[nH]c5ccccc45)n3)C2)cc1 [BSJ-01-175] (max 10 µM) | -0.936 | -0.356 |  |  |  |  | 
CC(=O)c1c(C)c2cnc(Nc3ccc(N4CCN(CCOCCOCCOCCNC(=O)COc5cccc6c5C(=O)N(C5CCC(=O)NC5=O)C6=O)CC4)cn3)nc2n(C2CCCC2)c1=O (centres undefined) [BSJ-03-123] (max 10 µM) | -0.138 | -0.17 |  |  |  |  | 
CC(C)Nc1cc(-c2c[nH]c(C(=O)N[C@H](CO)c3cccc(Cl)c3)c2)c(Cl)cn1 [BVD523] (max 10 µM) | 0.564 | 0.225 |  |  |  |  | 
Cc1c(N)nc([C@H](CC(N)=O)NC[C@H](N)C(N)=O)nc1C(=O)N[C@H](C(=O)N[C@H](C)[C@@H](O)[C@H](C)C(=O)N[C@H](C(=O)NCCc1nc(-c2nc(C(=O)NCCC[S+](C)C)cs2)cs1)[C@@H](C)O)[C@@H](OC1OC(CO)C(O)C(O)C1OC1OC(CO)C(O)C(OC(N)=O)C1O)c1cnc[nH]1 (some centres undefined) [Bleomycin] (max 10 µM) |  |  |  |  |  |  | area over the GR curve (HCC1428 [1]; main component drawn): 0.178 GR; GRmax, 72 h (MDAMB157; main component drawn): -0.281 GR; GRmax, 72 h (HCC1428 [2]; main component drawn): 0.217 GR; GRmax, 72 h (HCC1500; main component drawn): 0.174 GR
Nc1cc(C(F)(F)F)c(-c2cc(N3CCOCC3)nc(N3CCOCC3)n2)cn1 [Buparlisib/NVP-BKM120] (max 10 µM) |  |  | 0.344 | -0.641 | -0.265 | -0.546 | 
COc1cc2nccc(Oc3ccc(NC(=O)C4(C(=O)Nc5ccc(F)cc5)CC4)cc3)c2cc1OC [Cabozantinib] (max 10 µM) |  |  | 0.0108 | 0.149 | 0.631 | 0.184 | 
COc1cc2c(Oc3ccc4[nH]c(C)cc4c3F)ncnc2cc1OCCCN1CCCC1 [Cediranib/AZD2171] (max 10 µM) |  |  | 0.189 | -0.585 | -0.55 | -0.808 | 
Cc1cc(Nc2ncc(Cl)c(Nc3ccccc3S(=O)(=O)C(C)C)n2)c(OC(C)C)cc1C1CCNCC1 [Ceritinib/LDK378] (max 10 µM) |  |  | 0.295 | -0.926 | -0.867 | -0.954 | 
N.N.[Cl][Pt][Cl] [Cisplatin] (max 10 µM) |  |  | 0.221 | 0.189 | 0.122 | 0.207 | 
